How the values were obtained:
[1] = system: ceramide levels; assay: Ceramide levels by ELISA in lung and plasma of P. aeruginosa-infected mice; assay type: in vivo
Experimental: (§1) Fenretinide Diet Supplementation. Examples 2 to 6: fenretinide (Sigma-Aldrich, Oakville, ON) powder was resuspended in 95% ethanol and subsequently incorporated in the Peptamen liquid diet. It was protected from light and kept at 4° C. before being given to the mice (5 mg/kg per day per mouse). Mock-treated diets were prepared similarly by adding ethanol to the Peptamen diet but omitting the fenretinide supplementation. The diet was given every morning for 28 consecutive days with specific monitoring of the quantity consumed by the mice in each cage. Examples 7 to 12: fenretinide powder was kindly provided by Dr. Robert Smith (NIH; Bethesda, Md., USA). Fenretinide was resuspended in 95% ethanol to make a 2 μg/μL concentration. Approximately 40 μL of this preparation was incorporated into the Peptamen liquid diet (5 mg/kg per day per mouse). The prepared food containing fenretinide was then stored in the dark at 4° C. for no more than 3 hours prior to being administered to the mice. To ensure that the entire drug dose was consumed, the mice were given 10 mL of fenretinide-treated Peptamen, which represents ⅔ of the daily mouse food consumption, in the late afternoon. […] During the treatment period each mouse was kept in a separate cage (including WT mice) and was monitored to ensure that the entire amount of Peptamen containing the fenretinide or with out was consumed. […]

[2] = system: osteoblasts and osteoclasts; assay: Osteoblast and osteoclast counts in femur (H&E, TRAP); assay type: in vivo, mice
Experimental: as §1

[3] = system: DHA levels, DHA/AA ratio, ceramide levels, AA levels; assay: Systemic lipid parameters in several organs, biweekly treatment for 4 weeks; assay type: in vivo, mice; conditions: four-week biweekly treatment
Experimental: as §1, with “mouse).” for “mouse). The prepared food containing fenretinide was then stored in the dark at 4° C. for no more than 3 hours prior to being administered to the mice. To ensure that the entire drug dose was consumed, the mice were given 10 mL of fenretinide-treated Peptamen, which represents ⅔ of the daily mouse food consumption, in the late afternoon.”
Ceramide/Sphingolipids analysis. The concentration of ceramide in the (lung, liver, ileum, pancreas homogenates) and plasma from mice and humans were determined by ELISA^39;40 on separated lipids samples by thin layer chromatography, as described above. […]

Q: How did the “Increase in ceramide levels vs mock-treated controls” value ([1]; P. aeruginosa-infected Cftr-KO mice) turn out when CC1=C(/C=C/C(C)=C/C=C/C(C)=C/C(=O)Nc2ccc(O)cc2)C(C)(C)CCC1 [fenretinide, all-trans-N-(4-hydroxyphenyl) retinamide] was run?
A: approximately 7 fold

Q: And the “Increase in ceramide levels vs untreated counterparts” value ([1]; P. aeruginosa-infected WT mice)?
A: approx. 2 fold

Q: What about the “Number of osteoclasts, treated vs untreated” value ([2]; Cftr-KO and WT mice) of the same compound?
A: No significant difference

Q: And the “Amount of osteoblasts vs untreated Cftr-KO” value ([2]; Cftr-KO mice, p<0.05)?
A: increase

Q: What about the “Defect/imbalance in DHA levels, DHA/AA ratio and ceramide levels in all organs” value ([3]; Cftr-KO and HZ mice) of the same compound?
A: effective at correcting, at least partially

Q: And the “AA levels in control organs (heart, kidney and spleen)” value ([3]; Cftr-KO mice)?
A: decreases the AA levels to normal

— patent US8680153B2, “Method for correcting a lipid imbalance in a subject” (The Royal Institution for the Advancement of …, priority 2005, dated 2014)
